Results on 25 substances are retold here after the OligoGym collection.

HELM strings list units from the 5' end as sugar, base in round brackets, then linkage (d deoxyribose, r ribose, m 2'-O-methyl, p phosphodiester). Strings are as the collection lists them; they lack the last nucleoside at the 3' end of the tested compound. [moe] = 2'-O-(2-methoxyethyl) (MOE); [sp] = phosphorothioate linkage; [m5C] = 5-methylcytosine

The target of the data set is PRNP. Kind of data set: mouse, dose not given. As to conditions: ASO.

Substance “RNA1{[moe]([m5C])[sp].[moe](T)p.[moe](T)p.[moe](A)p.[moe](A)[sp].d(T)[sp].d(T)[sp].d(A)[sp].d(G)[sp].d(T)[sp].d(T)[sp].d(A)[sp].d([m5C])[sp].d(A)[sp].d(T)[sp].[moe]([m5C])p.[moe](G)p.[moe](G)[sp].[moe](G)}$$$$ (last 3' nucleoside missing)” registered a 3 h FOB score of 4.5 score 0-7.
The value for “RNA1{[moe](T)[sp].[moe](G)p.[moe](G)p.[moe](T)p.[moe](T)[sp].d(A)[sp].d(T)[sp].d(T)[sp].d(T)[sp].d(T)[sp].d(A)[sp].d(A)[sp].d(T)[sp].d(A)[sp].d(G)[sp].[moe](A)p.[moe](T)p.[moe](G)[sp].[moe](T)}$$$$ (last 3' nucleoside missing)” was 1 score 0-7.
The result for “RNA1{[moe](G)[sp].[moe](A)p.[moe](G)p.[moe]([m5C])p.[moe](A)[sp].d(A)[sp].d(T)[sp].d(A)[sp].d(T)[sp].d(A)[sp].d(T)[sp].d(T)[sp].d([m5C])[sp].d(A)[sp].d([m5C])[sp].[moe]([m5C])p.[moe](A)p.[moe](A)[sp].[moe](A)}$$$$ (last 3' nucleoside missing)” reads 2.5 score 0-7; that for “RNA1{[moe](T)[sp].[moe](G)p.[moe](T)p.[moe]([m5C])p.d(A)[sp].d(G)[sp].d(T)[sp].d(T)[sp].d(T)[sp].d(T)[sp].d(T)[sp].d([m5C])[sp].d([m5C])[sp].d([m5C])[sp].[moe]([m5C])p.[moe](A)p.[moe]([m5C])p.[moe](A)[sp].[moe](T)}$$$$ (last 3' nucleoside missing)”, 0 score 0-7; that for “RNA1{[moe](G)[sp].[moe](G)p.[moe]([m5C])p.[moe](T)p.[moe](T)[sp].d(A)[sp].d([m5C])[sp].d(T)[sp].d([m5C])[sp].d(G)[sp].d(G)[sp].d([m5C])[sp].d(T)[sp].d(T)[sp].d(G)[sp].[moe](T)p.[moe](T)p.[moe]([m5C])[sp].[moe]([m5C])}$$$$ (last 3' nucleoside missing)”, 3.75 score 0-7.
The value for “RNA1{[moe](T)[sp].[moe]([m5C])p.[moe](A)p.[moe]([m5C])p.[moe](T)[sp].d(G)[sp].d(T)[sp].d(G)[sp].d(A)[sp].d(A)[sp].d(T)[sp].d(A)[sp].d(T)[sp].d(G)[sp].d(T)[sp].[moe]([m5C])p.[moe]([m5C])p.[moe](T)[sp].[moe]([m5C])}$$$$ (last 3' nucleoside missing)” was 5 score 0-7.
Regarding “RNA1{[moe](T)[sp].[moe](T)p.[moe](T)p.[moe](A)p.[moe]([m5C])[sp].d(T)[sp].d(T)[sp].d(T)[sp].d(T)[sp].d([m5C])[sp].d(A)[sp].d(G)[sp].d([m5C])[sp].d(T)[sp].d(G)[sp].[moe]([m5C])p.[moe]([m5C])p.[moe](T)[sp].[moe](T)}$$$$ (last 3' nucleoside missing)”, the 3 h FOB score was found to be 6 score 0-7.
The substance “RNA1{[moe](G)[sp].[moe](T)p.[moe](T)p.[moe](A)p.[moe](G)[sp].d([m5C])[sp].d(T)[sp].d(T)[sp].d(T)[sp].d(T)[sp].d(T)[sp].d(T)[sp].d(T)[sp].d([m5C])[sp].d(A)[sp].[moe]([m5C])p.[moe](T)p.[moe](G)[sp].[moe](T)}$$$$ (last 3' nucleoside missing)” returned a 3 h FOB score of 0.5 score 0-7.
The value for “RNA1{[moe](T)[sp].[moe]([m5C])p.[moe](G)p.[moe]([m5C])p.[moe]([m5C])[sp].d(A)[sp].d(T)[sp].d(A)[sp].d(A)[sp].d(T)[sp].d(G)[sp].d(A)[sp].d([m5C])[sp].d(T)[sp].d(G)[sp].[moe]([m5C])p.[moe](T)p.[moe]([m5C])[sp].[moe](T)}$$$$ (last 3' nucleoside missing)” was 4.5 score 0-7; that for “RNA1{[moe]([m5C])[sp].[moe](A)p.[moe](G)p.[moe](T)p.[moe](T)[sp].d(T)[sp].d(T)[sp].d(T)[sp].d([m5C])[sp].d([m5C])[sp].d([m5C])[sp].d([m5C])[sp].d(A)[sp].[moe]([m5C])p.[moe](A)p.[moe](T)[sp].[moe](A)}$$$$ (last 3' nucleoside missing)” was 0 score 0-7; that for “RNA1{[moe](A)[sp].[moe](T)p.[moe](G)p.[moe](G)p.[moe](T)[sp].d(G)[sp].d([m5C])[sp].d(T)[sp].d(T)[sp].d(T)[sp].d([m5C])[sp].d(A)[sp].d([m5C])[sp].d(A)[sp].d(A)[sp].[moe]([m5C])p.[moe](T)p.[moe](G)[sp].[moe]([m5C])}$$$$ (last 3' nucleoside missing)” was 1 score 0-7.
The value for “RNA1{[moe](A)[sp].[moe](G)p.[moe](A)p.[moe](G)p.[moe]([m5C])[sp].d(A)[sp].d(A)[sp].d(T)[sp].d(A)[sp].d(T)[sp].d(A)[sp].d(T)[sp].d(T)[sp].d([m5C])[sp].d(A)[sp].[moe]([m5C])p.[moe]([m5C])p.[moe](A)[sp].[moe](A)}$$$$ (last 3' nucleoside missing)” was 0 score 0-7; that for “RNA1{[moe](G)[sp].[moe](T)p.[moe](G)p.[moe](G)p.[moe](A)[sp].d(A)[sp].d(G)[sp].d(A)[sp].d([m5C])[sp].d(T)[sp].d(T)[sp].d(G)[sp].d(T)[sp].d(G)[sp].d(T)[sp].[moe](T)p.[moe](A)p.[moe](G)[sp].[moe](A)}$$$$ (last 3' nucleoside missing)” was 5.25 score 0-7; that for “RNA1{[moe]([m5C])[sp].[moe](T)p.[moe](G)p.[moe](G)p.[moe](T)[sp].d(G)[sp].d(A)[sp].d(T)[sp].d(T)[sp].d(T)[sp].d(T)[sp].d(T)[sp].d(T)[sp].d([m5C])[sp].d([m5C])[sp].[moe](T)p.[moe](T)p.[moe](T)[sp].[moe]([m5C])}$$$$ (last 3' nucleoside missing)” was 0 score 0-7.
The result for “RNA1{[moe](G)[sp].[moe](T)p.[moe](G)p.[moe](A)p.[moe]([m5C])[sp].d(A)[sp].d(A)[sp].d(T)[sp].d(A)[sp].d(T)[sp].d(T)[sp].d(T)[sp].d(A)[sp].d([m5C])[sp].d(T)[sp].[moe]([m5C])p.[moe](T)p.[moe](T)[sp].[moe](G)}$$$$ (last 3' nucleoside missing)” reads 1 score 0-7.
On to “RNA1{[moe](A)[sp].[moe]([m5C])[sp].[moe](T)p.[moe]([m5C])p.[moe](T)p.[moe](A)p.[moe](T)p.d(G)[sp].d(T)[sp].d(T)[sp].d(T)[sp].d(T)[sp].d([m5C])[sp].d([m5C])[sp].d(A)[sp].d(G)[sp].d(T)[sp].[moe](G)p.[moe]([m5C])}$$$$ (last 3' nucleoside missing)”, for which the 3 h FOB score is 4.25 score 0-7.
Take “RNA1{[moe](A)[sp].[moe]([m5C])p.[moe](A)p.[moe](T)p.[moe](T)[sp].d(T)[sp].d(A)[sp].d(T)[sp].d(T)[sp].d(T)[sp].d([m5C])[sp].d(A)[sp].d(T)[sp].d(G)[sp].d(T)[sp].[moe](G)p.[moe]([m5C])p.[moe]([m5C])[sp].[moe](A)}$$$$ (last 3' nucleoside missing)”: the 3 h FOB score is 3 score 0-7.
The result for “RNA1{[moe](A)[sp].[moe](A)p.[moe]([m5C])p.[moe](A)p.[moe](T)[sp].d(T)[sp].d(T)[sp].d(G)[sp].d(A)[sp].d(T)[sp].d(T)[sp].d(T)[sp].d([m5C])[sp].d(A)[sp].d(A)[sp].[moe](G)p.[moe](T)p.[moe]([m5C])[sp].[moe]([m5C])}$$$$ (last 3' nucleoside missing)” reads 2.5 score 0-7; that for “RNA1{[moe](G)[sp].[moe](T)p.[moe]([m5C])p.d(A)[sp].d(G)[sp].d(T)[sp].d(T)[sp].d(T)[sp].d(T)[sp].d(T)[sp].d([m5C])[sp].d([m5C])[sp].d([m5C])[sp].[moe]([m5C])p.[moe](A)p.[moe]([m5C])p.[moe](A)p.[moe](T)[sp].[moe](A)}$$$$ (last 3' nucleoside missing)”, 0 score 0-7; that for “RNA1{[moe](T)[sp].[moe](T)p.[moe]([m5C])p.[moe](A)p.[moe](G)[sp].d(A)[sp].d(T)[sp].d(T)[sp].d(T)[sp].d(T)[sp].d(T)[sp].d([m5C])[sp].d(A)[sp].d([m5C])[sp].d(A)[sp].[moe](T)p.[moe](A)p.[moe](T)[sp].[moe](G)}$$$$ (last 3' nucleoside missing)”, 1 score 0-7.
Substance “RNA1{[moe](A)[sp].[moe](G)p.[moe]([m5C])p.[moe](T)p.[moe]([m5C])[sp].d(T)[sp].d([m5C])[sp].d([m5C])[sp].d(T)[sp].d(G)[sp].d(T)[sp].d(A)[sp].d(T)[sp].d(G)[sp].d(T)[sp].[moe]([m5C])p.[moe](A)p.[moe](A)[sp].[moe](A)}$$$$ (last 3' nucleoside missing)” showed a 3 h FOB score of 4.75 score 0-7.
The value for “RNA1{[moe](A)[sp].[moe](T)p.[moe](G)p.[moe](T)p.[moe](T)[sp].d(T)[sp].d(T)[sp].d([m5C])[sp].d([m5C])[sp].d(A)[sp].d(G)[sp].d(T)[sp].d(G)[sp].d([m5C])[sp].d([m5C])[sp].[moe]([m5C])p.[moe](A)p.[moe](T)[sp].[moe]([m5C])}$$$$ (last 3' nucleoside missing)” was 5.75 score 0-7; that for “RNA1{[moe]([m5C])[sp].[moe](G)p.[moe](T)p.[moe]([m5C])p.[moe]([m5C])p.[moe](A)p.d(T)[sp].d(T)[sp].d(T)[sp].d(T)[sp].d([m5C])[sp].d(T)[sp].d(G)[sp].d(T)[sp].d(G)[sp].d([m5C])[sp].[moe](T)p.[moe](T)[sp].[moe](T)}$$$$ (last 3' nucleoside missing)” was 6.25 score 0-7; that for “RNA1{[moe](A)[sp].[moe](G)p.[moe](G)p.[moe](G)p.[moe]([m5C])[sp].d(A)[sp].d(T)[sp].d(T)[sp].d(A)[sp].d(G)[sp].d(T)[sp].d(A)[sp].d(T)[sp].d(A)[sp].d([m5C])[sp].[moe](T)p.[moe](G)p.[moe](A)[sp].[moe](G)}$$$$ (last 3' nucleoside missing)” was 2.75 score 0-7.
The result for “RNA1{[moe]([m5C])[sp].[moe](G)p.[moe](T)p.[moe]([m5C])p.d([m5C])[sp].d(A)[sp].d(T)[sp].d(T)[sp].d(T)[sp].d(T)[sp].d([m5C])[sp].d(T)[sp].d(G)[sp].d(T)[sp].[moe](G)p.[moe]([m5C])p.[moe](T)p.[moe](T)[sp].[moe](T)}$$$$ (last 3' nucleoside missing)” reads 3 score 0-7.
